Laboratory results published in PubChem BioAssay AID248 (DTP/NCI, 2004).
Values joined by “and” are separate entries in the source; they are usually repeats but may differ in a detail not shown here. Identical values can stand only once. Inconclusive results and toxic doses are left out.

System: L1210 leukemia ip in BDF1 mice, survival T/C
Test: NCI In Vivo Anticancer Drug Screen. Data for tumor model L1210 Leukemia (intraperitoneal) in B6D2F1 (BDF1) mice
Settings: endpoint: mean survival time, higher = longer survival
Method in brief: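 Value reflects the ratio of survival in compound-treated mice to survival in vehicle-treated controls, with both groups carrying the same transplanted tumor.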

[1] = dose: 50.0 mg/kg/injection, schedule: Q01DX001 (ip), vehicle: carboxymethylcellulose (CMC)
[2] = dose: 200.0 mg/kg/injection, schedule: Q01DX009 (ip), vehicle: saline
[3] = dose: 400.0 mg/kg/injection, schedule: Q01DX009 (ip), vehicle: saline
[4] = dose: 100.0 mg/kg/injection, schedule: Q01DX009 (ip), vehicle: saline with Tween-80
[5] = dose: 200.0 mg/kg/injection, schedule: Q01DX009 (ip), vehicle: saline with Tween-80

`CCCCCCCCC(=O)N(CCC)CCC` was tested, and the T/C (dose: 100.0 mg/kg/injection, schedule: Q01DX009 (ip), vehicle: carboxymethylcellulose (CMC)) was 94 % of control and 97 % of control, the T/C (dose: 100.0 mg/kg/injection, schedule: Q04DX002 (ip), vehicle: carboxymethylcellulose (CMC)) was 96 % of control and the T/C (dose: 200.0 mg/kg/injection, schedule: Q01DX009 (ip), vehicle: carboxymethylcellulose (CMC)) was 93 % of control and 96 % of control. For the same compound, the T/C (dose: 200.0 mg/kg/injection, schedule: Q04DX002 (ip), vehicle: carboxymethylcellulose (CMC)) was 96 % of control, the T/C (dose: 400.0 mg/kg/injection, schedule: Q01DX009 (ip), vehicle: carboxymethylcellulose (CMC)) was 94 % of control and 90 % of control and the T/C (dose: 400.0 mg/kg/injection, schedule: Q04DX002 (ip), vehicle: carboxymethylcellulose (CMC)) was 96 % of control.

In the case of `Cc1ncc(CC#N)c2c1OC(C)(C)OC2`, the T/C (dose: 12.5 mg/kg/injection, schedule: Q01DX001 (ip), vehicle: carboxymethylcellulose (CMC)) is reported as 107 % of control, the T/C (dose: 25.0 mg/kg/injection, schedule: Q01DX001 (ip), vehicle: carboxymethylcellulose (CMC)) is reported as 104 % of control and the T/C [1] is reported as 101 % of control.

In the case of `CN(C)C(=S)N(C)C`, the T/C [1] is reported as 104 % of control, the T/C (dose: 100.0 mg/kg/injection, schedule: Q01DX001 (ip), vehicle: carboxymethylcellulose (CMC)) is reported as 104 % of control and the T/C (dose: 100.0 mg/kg/injection, schedule: Q01DX009 (ip), vehicle: saline) is reported as 90 % of control. For the same compound, the T/C (dose: 100.0 mg/kg/injection, schedule: Q04DX003 (ip), vehicle: saline) was 107 % of control, the T/C (dose: 200.0 mg/kg/injection, schedule: Q01DX001 (ip), vehicle: carboxymethylcellulose (CMC)) was 101 % of control and the T/C [2] was 96 % of control. For the same compound, the T/C (dose: 200.0 mg/kg/injection, schedule: Q04DX003 (ip), vehicle: saline) was 107 % of control, the T/C (dose: 400.0 mg/kg/injection, schedule: Q01DX001 (ip), vehicle: carboxymethylcellulose (CMC)) was 98 % of control and the T/C [3] was 98 % of control. The T/C (dose: 400.0 mg/kg/injection, schedule: Q04DX003 (ip), vehicle: saline) was 104 % of control.

In the case of `CCC(C)(O)C#N` (centres undefined), the T/C (dose: 2.2 mg/kg/injection, schedule: Q01DX Z (ip), vehicle: saline) is reported as 104 % of control, the T/C (dose: 3.3 mg/kg/injection, schedule: Q01DX Z (ip), vehicle: saline) is reported as 94 % of control and the T/C (dose: 5.0 mg/kg/injection, schedule: Q01DX Z (ip), vehicle: saline) is reported as 98 % of control.

`CCCCC(CCCC)CCCC` was tested, and the T/C (dose: 100.0 mg/kg/injection, schedule: Q04DX002 (ip), vehicle: saline with Tween-80) was 97 % of control, the T/C (dose: 200.0 mg/kg/injection, schedule: Q04DX002 (ip), vehicle: saline with Tween-80) was 106 % of control and the T/C (dose: 400.0 mg/kg/injection, schedule: Q04DX002 (ip), vehicle: saline with Tween-80) was 103 % of control.

In the case of `O=C(O)C1C2C=CC(C2)C1c1ccccc1` (centres undefined), the T/C [4] is reported as 101 % of control, the T/C (dose: 100.0 mg/kg/injection, schedule: Q04DX003 (ip), vehicle: saline with Tween-80) is reported as 97 % of control and the T/C [5] is reported as 97 % of control. For the same compound, the T/C (dose: 200.0 mg/kg/injection, schedule: Q04DX003 (ip), vehicle: saline with Tween-80) was 93 % of control, the T/C (dose: 400.0 mg/kg/injection, schedule: Q01DX009 (ip), vehicle: saline with Tween-80) was 98 % of control and the T/C (dose: 400.0 mg/kg/injection, schedule: Q04DX003 (ip), vehicle: saline with Tween-80) was 114 % of control.

In the case of `CC(C)(C)c1ccc(OC(=O)Nc2cc(C(F)(F)F)ccc2Cl)c(Br)c1`, the T/C (dose: 100.0 mg/kg/injection, schedule: Q01DX009 (ip), vehicle: Klucel (hydroxypropylcellulose) (HPC)) is reported as 90 % of control, the T/C (dose: 200.0 mg/kg/injection, schedule: Q01DX009 (ip), vehicle: Klucel (hydroxypropylcellulose) (HPC)) is reported as 97 % of control and the T/C (dose: 400.0 mg/kg/injection, schedule: Q01DX009 (ip), vehicle: Klucel (hydroxypropylcellulose) (HPC)) is reported as 97 % of control.

For `Cc1ccc2c(c1)c(C)cc(=O)n2C`, the T/C (dose: 100.0 mg/kg/injection, schedule: Q01DX001 (ip), vehicle: other) was 96 % of control and the T/C (dose: 200.0 mg/kg/injection, schedule: Q01DX001 (ip), vehicle: other) was 117 % of control.

`COc1ccc(C2CCc3cc(OC)c(OC)cc3C2NC=O)cc1OC` (centres undefined) was tested, and the T/C (dose: 40.0 mg/kg/injection, schedule: Q01DX009 (ip), vehicle: saline with Tween-80) was 90 % of control, the T/C (dose: 80.0 mg/kg/injection, schedule: Q01DX009 (ip), vehicle: saline with Tween-80) was 102 % of control and the T/C (dose: 120.0 mg/kg/injection, schedule: Q01DX009 (ip), vehicle: saline with Tween-80) was 93 % of control. For the same compound, the T/C (dose: 240.0 mg/kg/injection, schedule: Q01DX009 (ip), vehicle: saline with Tween-80) was 90 % of control and the T/C (dose: 360.0 mg/kg/injection, schedule: Q01DX009 (ip), vehicle: saline with Tween-80) was 87 % of control.

For `Nc1nc(=O)n(C2OC(CO)C(O)C2O)cc1Cl` (centres undefined), the T/C (dose: 200.0 mg/kg/injection, schedule: Q01DX005 (ip), vehicle: saline) was 150 % of control, the T/C [2] was 160 % of control and the T/C [3] was 176 % of control.

For `CCCCCCCCCCCCN1CCC(=O)NC1=O`, the T/C [4] was 100 % of control and the T/C [5] was 97 % of control.

In the case of `CC(=O)OC1CCC2(C)C(CCC3C2CCC2(C)C(c4ccc(=O)oc4)C(OC(C)=O)CC32O)C1` (centres undefined), the T/C (dose: 1.0 mg/kg/injection, schedule: Q01DX001 (sc), vehicle: steriod suspending solution) is reported as 96 % of control, the T/C (dose: 2.0 mg/kg/injection, schedule: Q01DX001 (sc), vehicle: steriod suspending solution) is reported as 98 % of control and the T/C (dose: 4.0 mg/kg/injection, schedule: Q01DX001 (sc), vehicle: steriod suspending solution) is reported as 93 % of control. For the same compound, the T/C (dose: 8.0 mg/kg/injection, schedule: Q01DX001 (sc), vehicle: steriod suspending solution) was 109 % of control, the T/C (dose: 12.0 mg/kg/injection, schedule: Q01DX001 (sc), vehicle: steriod suspending solution) was 98 % of control and the T/C (dose: 16.0 mg/kg/injection, schedule: Q01DX001 (sc), vehicle: steriod suspending solution) was 101 % of control. The T/C (dose: 32.0 mg/kg/injection, schedule: Q01DX001 (sc), vehicle: steriod suspending solution) was 108 % of control, the T/C (dose: 64.0 mg/kg/injection, schedule: Q01DX001 (sc), vehicle: steriod suspending solution) was 103 % of control and the T/C (dose: 128.0 mg/kg/injection, schedule: Q01DX001 (sc), vehicle: steriod suspending solution) was 111 % of control.

`CCOC(=O)c1cnc(SCc2ccccc2Cl)nc1N1CC1` was tested, and the T/C (dose: 12.5 mg/kg/injection, schedule: Q01DX001 (ip), vehicle: saline) was 100 % of control, the T/C (dose: 12.5 mg/kg/injection, schedule: Q04DX003 (ip), vehicle: saline) was 100 % of control and the T/C (dose: 25.0 mg/kg/injection, schedule: Q01DX001 (ip), vehicle: saline) was 98 % of control. The T/C (dose: 25.0 mg/kg/injection, schedule: Q04DX003 (ip), vehicle: saline) was 101 % of control, the T/C (dose: 28.05 mg/kg/injection, schedule: Q01DX009 (ip), vehicle: acetone) was 92 % of control and the T/C (dose: 42.5 mg/kg/injection, schedule: Q01DX009 (ip), vehicle: acetone) was 112 % of control. The T/C (dose: 50.0 mg/kg/injection, schedule: Q01DX001 (ip), vehicle: saline) was 98 % of control, the T/C (dose: 50.0 mg/kg/injection, schedule: Q04DX003 (ip), vehicle: saline) was 98 % of control and 100 % of control and 113 % of control and the T/C (dose: 63.75 mg/kg/injection, schedule: Q01DX009 (ip), vehicle: acetone) was 117 % of control. The T/C (dose: 75.0 mg/kg/injection, schedule: Q04DX003 (ip), vehicle: saline) was 102 % of control and 117 % of control, the T/C (dose: 110.0 mg/kg/injection, schedule: Q04DX003 (ip), vehicle: saline) was 104 % of control and 120 % of control and the T/C (dose: 115.0 mg/kg/injection, schedule: Q04DX003 (ip), vehicle: saline) was 122 % of control. For the same compound, the T/C (dose: 170.0 mg/kg/injection, schedule: Q04DX003 (ip), vehicle: saline) was 115 % of control.

In the case of `CCC1CCCCN1C` (centres undefined), the T/C (dose: 25.0 mg/kg/injection, schedule: Q01DX009 (ip), vehicle: acetone) is reported as 96 % of control, the T/C (dose: 50.0 mg/kg/injection, schedule: Q01DX009 (ip), vehicle: acetone) is reported as 94 % of control and the T/C (dose: 100.0 mg/kg/injection, schedule: Q01DX009 (ip), vehicle: acetone) is reported as 100 % of control.

With `CC12CCC(C(C(=O)C3C(=O)C4(C)CCC3C4(C)C)C1=O)C2(C)C` (centres undefined) the T/C (dose: 100.0 mg/kg/injection, schedule: Q01DX001 (ip), vehicle: Klucel (hydroxypropylcellulose) (HPC)) was 102 % of control, the T/C (dose: 200.0 mg/kg/injection, schedule: Q01DX001 (ip), vehicle: Klucel (hydroxypropylcellulose) (HPC)) was 103 % of control and the T/C (dose: 400.0 mg/kg/injection, schedule: Q01DX001 (ip), vehicle: Klucel (hydroxypropylcellulose) (HPC)) was 113 % of control.
